Tested on: NL-RLuc virus
Assay: Inhibition of HIV replication (NL-RLuc virus, luciferase readout in MT-2 cells)
Format: cell-based
Conditions: MT-2 cells infected with NL-RLuc virus, 5 days of incubation, 10% FBS, at least 2 experiments
How it was run: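 MT-2 cells infected with NL4-3-derived virus carrying Renilla luciferase in place of part of nef, grown 5 days with serial compound dilutions in RPMI 1640/10% FBS. Virus growth read as luciferase expression. EC50 from median effect equation, at least 2 experiments.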

[1] = Human immunodeficiency virus 1, MT2, 120 h

Row | Compound | EC50 [1] [nM] | EC50 [nM]
1 | Cc1ncc(-c2ncc3ccccc3n2)c(N2CCC(C)(C)CC2)c1[C@H](OC(C)(C)C)C(=O)O [Example 267, (S)-2-(tert-Butoxy)-2-(4-(4,4-dimethylpiperidin-1-yl)-2-methyl-5-(quinazolin-2-yl)pyridin-3-yl)acetic acid] | 9 | –
2 | COc1c(F)cc(-c2c(CO)nc(Cl)c([C@H](OC(C)(C)C)C(=O)O)c2N2CCC(C)(C)CC2)cc1F [Example 205, (S)-2-(tert-Butoxy)-2-(2-chloro-5-(3,5-difluoro-4-methoxyphenyl)-4-(4,4-dimethylpiperidin-1-yl)-6-(hydroxymethyl)pyridin-3-yl)acetic acid] | 6 | –
3 | Cc1ncc(-c2cnc(OCCc3ccc(F)c(Cl)c3)c(F)c2)c(N2CCC(C)(C)CC2)c1[C@H](OC(C)(C)C)C(=O)O [Example 403, (2S)-2-(tert-butoxy)-2-{6′-[2-(3-chloro-4-fluorophenyl)ethoxy]-4-(4,4-dimethylpiperidin-1-yl)-5′-fluoro-6-methyl-[3,3′-bipyridine]-5-yl}acetic acid] | 2 | –
4 | Cc1ncc(-c2ccc(OCCc3ccc(F)cc3Cl)cn2)c(N2CCC(C)(C)CC2)c1[C@H](OC(C)(C)C)C(=O)O [Example 310, (2S)-2-(tert-butoxy)-2-{5-[2-(2-chloro-4-fluorophenyl)ethoxy]-4′-(4,4-dimethylpiperidin-1-yl)-6′-methyl-[2,3′-bipyridine]-5′-yl}acetic acid] | 0.5 | –
5 | Cc1ncc(-c2ccc(OCc3ccc(Cl)cc3)cn2)c(N2CCC(C)(C)CC2)c1[C@H](OC(C)(C)C)C(=O)O [Example 338, (2S)-2-(tert-butoxy)-2-{5-[(4-chlorophenyl)methoxy]-4′-(4,4-dimethylpiperidin-1-yl)-6′-methyl-[2,3′-bipyridine]-5′-yl}acetic acid] | 1 | –
6 | Cc1ncc(-c2ccc(C(F)CC(C)C)nc2)c(N2CCC(C)(C)CC2)c1[C@H](OC(C)(C)C)C(=O)O (stereo partly drawn) [Example 411, (2S)-2-(tert-Butoxy)-2-(4-(4,4-dimethylpiperidin-1-yl)-6′-(1-fluoro-3-methylbutyl)-6-methyl-[3, 3′-bipyridin]-5-yl)acetic acid] | 20 | –
7 | Cc1ncccc1Nc1nc(C)c([C@H](OC(C)(C)C)C(=O)O)c(N2CCC(C)(C)CC2)c1-c1ccc(OCCc2ccc(F)cc2)cc1 [Example 94, (S)-2-(tert-Butoxy)-2-(4-(4,4-dimethylpiperidin-1-yl)-5-(4-(4-fluorophenethoxy)phenyl)-2-methyl-6-((2-methylpyridin-3-yl)amino)pyridin-3-yl)acetic acid] | 6 | –
8 | Cc1nn(-c2nc(C)c([C@H](OC(C)(C)C)C(=O)O)c(N3CCC(C)(C)CC3)c2-c2ccc(OCCc3ccc(F)cc3)cc2)c(C)c1C [Example 75, (S)-2-(tert-Butoxy)-2-(4-(4,4-dimethylpiperidin-1-yl)-5-(4-(4-fluorophenethoxy)phenyl)-2-methyl-6-(3,4,5-trimethyl-H-pyrazol-1-yl)pyridin-3-yl)acetic acid] | 3 | –
9 | CC1(C)CCN(c2c(-c3ccc(CNc4ncnc5c4oc4ccccc45)cc3)cnc(Cl)c2[C@H](OC(C)(C)C)C(=O)O)CC1 [Example 201, (S)-2-(5-(4-((Benzofuro[3,2-d]pyrimidin-4-ylamino)methyl)phenyl)-2-chloro-4-(4,4-dimethylpiperidin-1-yl)pyridin-3-yl)-2-(tert-butoxy)acetic acid] | 1 | –
10 | Cc1ncc(-c2ccc(OCCc3ccc(F)c(F)c3)cn2)c(N2CCC(C)(C)CC2)c1[C@H](OC(C)(C)C)C(=O)O [Example 299, (2S)-2-(tert-butoxy)-2-{5-[2-(3,4-difluorophenyl)ethoxy]-4′-(4,4-dimethylpiperidin-1-yl)-6′-methyl-[2,3′-bipyridine]-5′-yl}acetic acid] | 1 | –
11 | Cc1ncc(-c2ccc(OCCC(C)C)cc2)c(N2CCC(C)(C)CC2)c1[C@H](OC(C)(C)C)C(=O)O [Example 361, (2S)-2-(tert-butoxy)-2-[4-(4,4-dimethylpiperidin-1-yl)-2-methyl-5-[4-(3-methylbutoxy)phenyl]pyridin-3-yl]acetic acid] | 4 | –
12 | Cc1ncc(-c2ccc(OCCc3cccc(F)c3)nc2)c(N2CCC(C)(C)CC2)c1[C@H](OC(C)(C)C)C(=O)O [Example 255, (S)-2-(tert-Butoxy)-2-(4-(4,4-dimethylpiperidin-1-yl)-6′-(3-fluorophenethoxy)-6-methyl-[3,3′-bipyridin]-5-yl)acetic acid] | 0.8 | –
13 | Cc1ncc(-c2cnc(OCCc3ccc(F)cc3)cn2)c(N2CCC(C)(C)CC2)c1[C@H](OC(C)(C)C)C(=O)O [Example 16, (S)-2-(tert-Butoxy)-2-(4-(4,4-dimethylpiperidin-1-yl)-5-(5-(4-fluorophenethoxy)pyrazin-2-yl)-2-methylpyridin-3-yl)acetic acid] | 2 | –
14 | Cc1ncc(-c2ccc(OCc3ccccc3Cl)cn2)c(N2CCC(C)(C)CC2)c1[C@H](OC(C)(C)C)C(=O)O [Example 336, (2S)-2-(tert-butoxy)-2-{5-[(2-chlorophenyl)methoxy]-4′-(4,4-dimethylpiperidin-1-yl)-6′-methyl-[2,3′-bipyridine]-5′-yl}acetic acid] | 2 | –
15 | Cc1ncc(-c2ccc(OCCc3ccc(F)cc3)cn2)c(N2CCC(C)(C)CC2)c1[C@H](OC(C)C)C(=O)O [Example 271, (S)-2-(4′-(4,4-Dimethylpiperidin-1-yl)-5-(4-fluorophenethoxy)-6′-methyl-[2, 3′-bipyridin]-5′-yl)-2-isopropoxyacetic acid] | 3 | –
16 | Cc1nc(NCCN2CCCCC2)c(-c2ccc(OCCc3ccc(F)cc3)cc2)c(N2CCC(C)(C)CC2)c1[C@H](OC(C)(C)C)C(=O)O [Example 29, (S)-2-(tert-Butoxy)-2-(4-(4,4-dimethylpiperidin-1-yl)-5-(4-(4-fluorophenethoxy)phenyl)-2-methyl-6-((2-(piperidin-1-yl)ethyl)amino)pyridin-3-yl)acetic acid] | 0.2 | –
17 | Cc1ncc(-c2cnc(O[C@H](C)Cc3ccccc3)c(F)c2)c(N2CCC(C)(C)CC2)c1[C@H](OC(C)(C)C)C(=O)O [Example 380, (2S)-2-(tert-butoxy)-2-[4-(4,4-dimethylpiperidin-1-yl)-5′-fluoro-6-methyl-6′-{[(2R)-1-phenylpropan-2-yl]oxy}-[3,3′-bipyridine]-5-yl]acetic acid] | 2 | –
18 | Cc1ncc(-c2cnc(N(C)C)c(F)c2)c(N2CCC(C)(C)CC2)c1[C@H](OC(C)(C)C)C(=O)O [Example 114, (S)-2-(tert-Butoxy)-2-(6′-(dimethylamino)-4-(4,4-dimethylpiperidin-1-yl)-5′-fluoro-6-methyl-[3,3′-bipyridin]-5-yl)acetic acid] | 24 | –
19 | Cc1nc(Nc2ccnc(F)c2)c(-c2ccc(OCCc3ccc(F)cc3)cc2)c(N2CCC(C)(C)CC2)c1[C@H](OC(C)(C)C)C(=O)O [Example 96, (S)-2-(tert-Butoxy)-2-(4-(4,4-dimethylpiperidin-1-yl)-5-(4-(4-fluorophenethoxy)phenyl)-6-((2-fluoropyridin-4-yl)amino)-2-methylpyridin-3-yl)acetic acid] | – | 21
20 | Cc1nc(-n2ccnc2)c(-c2ccc(OCCc3ccc(F)cc3)cc2)c(N2CCC(C)(C)CC2)c1[C@H](OC(C)(C)C)C(=O)O [Example 45, (S)-2-(tert-Butoxy)-2-(4-(4,4-dimethylpiperidin-1-yl)-5-(4-(4-fluorophenethoxy)phenyl)-6-(1H-imidazol-1-yl)-2-methylpyridin-3-yl)acetic acid] | 4 | –
21 | Cc1ncc(-c2ccc(OCCc3ccc(F)cc3)c(C(F)(F)F)c2)c(N2CCC(C)(C)CC2)c1[C@H](OC(C)(C)C)C(=O)O [Example 241, (S)-2-(tert-Butoxy)-2-(4-(4,4-dimethylpiperidin-1-yl)-5-(4-(4-fluorophenethoxy)-3-(trifluoromethyl)phenyl)-2-methylpyridin-3-yl)acetic acid] | 7 | –
22 | Cc1ncc(-c2ccc([C@H](O)CC(C)C)nc2)c(N2CCC(C)(C)CC2)c1[C@H](OC(C)(C)C)C(=O)O [Example 433, (S)-2-tert-butoxy-2-(4-(4,4-dimethylpiperidin-1-yl)-6′-((R)-1-hydroxy-3-methylbutyl)-6-methyl-3,3′-bipyridin-5-yl)acetic acid] | 25 | –
23 | Cc1ncc(-c2ccc(OCCc3cccc(F)c3F)cn2)c(N2CCC(C)(C)CC2)c1[C@H](OC(C)(C)C)C(=O)O [Example 329, (2S)-2-(tert-butoxy)-2-{5-[2-(2,3-difluorophenyl)ethoxy]-4′-(4,4-dimethylpiperidin-1-yl)-6′-methyl-[2,3′-bipyridine]-5′-yl}acetic acid] | 0.5 | –
24 | Cc1ncc(-c2ccc(CN(C)c3ncnc4c3oc3ccccc34)cc2)c(N2CCC(C)(C)CC2)c1[C@H](OC(C)(C)C)C(=O)O [Example 20, (2S)-2-(tert-Butoxy)-2-[4-(4,4-dimethylpiperidin-1-yl)-2-methyl-5-(4-{[methyl({8-oxa-3,5-diazatricyclo[7.4.0.0^2,7]trideca-1(9),2(7),3,5,10,12-hexaen-6-yl})amino]methyl}phenyl)pyridin-3-yl]acetic acid] | 2 | –
25 | Cc1ccccc1CCOc1ccc(-c2cnc(C)c([C@H](OC(C)(C)C)C(=O)O)c2N2CCC(C)(C)CC2)nc1 [Example 289, (2S)-2-(tert-butoxy)-2-[4′-(4,4-dimethylpiperidin-1-yl)-6′-methyl-5-[2-(2-methylphenyl)ethoxy]-[2,3′-bipyridine]-5′-yl]acetic acid] | 1 | –
26 | Cc1ncc(-c2ccc(COc3ccccc3)cn2)c(N2CCC(C)(C)CC2)c1[C@H](OC(C)(C)C)C(=O)O [Example 272, (S)-2-(tert-Butoxy)-2-(4′-(4,4-dimethylpiperidin-1-yl)-6′-methyl-5-(phenoxymethyl)-[2, 3′-bipyridin]-5′-yl)acetic acid] | 2 | –
27 | Cc1nc(-n2ccnc2C)c(-c2ccc(OCCc3ccc(F)cc3)cc2)c(N2CCC(C)(C)CC2)c1[C@H](OC(C)(C)C)C(=O)O [Example 54, (S)-2-(tert-Butoxy)-2-(4-(4,4-dimethylpiperidin-1-yl)-5-(4-(4-fluorophenethoxy)phenyl)-2-methyl-6-(2-methyl-1H-imidazol-1-yl)pyridin-3-yl)acetic acid] | 2 | –
